# Source: article PMC5740082, “Identification of a CARM1 Inhibitor with Potent In Vitro and In Vivo Activity in Preclinical Models of Multiple Myeloma” (Scientific Reports, 2017)
# pIC50: −log10 of the molar value.
# How the values were obtained:
# [1] = system: 55 receptors, ion channels and transporters; assay: ExpresSProfile (CEREP) screen; assay type: binding; conditions: 10 μM
# Source text: […]. […] […]. […] […].
# MC/CAR = assay: Six-day cell proliferation assay (CellTiter-Glo); assay type: cell-based; conditions: 144 h; MC/CAR (EBV+ B-lymphoblastoid), 6 days; read-out: Average day 6 gIC50
# Description: (§1) Six-day cell proliferation assay
# (§2) Optimal cell seeding density was determined empirically for each cell lines by examining the gro wth of a wide ran ge o f seedin g densities in a 3 84-well formatto identify conditio ns that permitted maximal and continued proliferation for 6 days. Cells were plat ed in duplicate plates 24 hours before treatment with a 20- point two-fold dilution series of compound or 0.15%
# (§3) DMSO. Plates were incubated for 6 da ys at 37°C in 5% CO2. Cells were th en l ysed with CellTiter-Glo (CTG) (Pr omega) and chemiluminescent sign al was detected with an appropriat e microplate reader. In addition, an untreated plate of cells was harvested at the time of compound addition (T0) to quantif y the initial cell densit y. CTG values obtained after 6 days of treatment were expressed as a percent of the T0 value and plotted against compound concentration. […]
# (§4) Supplementary Table S 3. […] A p anel […]
# (§5) of cell lines was treated with EZM2302fo r 6da ys in a proliferation ass a y. Cell densit y (as assessed b y CellTiter-Gl o) at da y 0 was compared to day 6 to det ermine growth IC 50 values , calculated us i n g a f our parameter dose response equation.
# (§6) Cell Type According to Cell Type Category Cell L ine Name gIC50 Average day 6 Standard Replicates
# (§7) Supplier Modifier gIC50 (nM) Deviation […]
# (§8) Burkitt lymphoma lymphoma NC-37 > 7331 0 2 […]
# KASUMI-1 = assay: Six-day cell proliferation assay (CellTiter-Glo); assay type: cell-based; conditions: Homo sapiens, 144 h; KASUMI-1 (AML), 6 days; read-out: Average day 6 gIC50
# Description: as §1, §2, §3, §4, §5, §6, §7, §8
# KMS-12PE = assay: Six-day cell proliferation assay (CellTiter-Glo); assay type: cell-based; conditions: Homo sapiens, 144 h; KMS-12PE (MM, Pleural effusion), 6 days; read-out: Average day 6 gIC50
# Description: as §1, §2, §3, §4, §5, §6, §7, §8
# MV-4-11 = assay: Six-day cell proliferation assay (CellTiter-Glo); assay type: cell-based; conditions: Homo sapiens, MV4-11, 144 h; MV-4-11 (AML), 6 days; read-out: Average day 6 gIC50
# Description: as §1, §2, §3, §4, §5, §6, §7, §8
# GDM-1 = assay: Six-day cell proliferation assay (CellTiter-Glo); assay type: cell-based; conditions: Homo sapiens, 144 h; GDM-1 (AML), 6 days; read-out: Average day 6 gIC50
# Description: as §1, §2, §3, §4, §5, §6, §7, §8
# MOLP-2 = assay: Six-day cell proliferation assay (CellTiter-Glo); assay type: cell-based; conditions: 144 h; MOLP-2 (MM), 6 days; read-out: Average day 6 gIC50
# Description: as §1, §2, §3, §4, §5, §6, §7, §8
# LP-1 = assay: Six-day cell proliferation assay (CellTiter-Glo); assay type: cell-based; conditions: Homo sapiens, 144 h; LP-1 (MM), 6 days; read-out: Average day 6 gIC50
# Description: as §1, §2, §3, §4, §5, §6, §7, §8
# MM.1R = assay: Six-day cell proliferation assay (CellTiter-Glo); assay type: cell-based; conditions: 144 h; MM.1R (MM), 6 days; read-out: Average day 6 gIC50
# Description: as §1, §2, §3, §4, §5, §6, §7, §8
# EJM = assay: Six-day cell proliferation assay (CellTiter-Glo); assay type: cell-based; conditions: Homo sapiens, 144 h; EJM (MM), 6 days; read-out: Average day 6 gIC50
# Description: as §1, §2, §3, §4, §5, §6, §7, §8
# NC-37 = assay: Six-day cell proliferation assay (CellTiter-Glo); assay type: cell-based; conditions: Homo sapiens, 144 h; NC-37 (Burkitt lymphoma), 6 days; read-out: Average day 6 gIC50
# Description: as §1, §2, §3, §4, §5, §6, §7, §8
# JM1 = assay: Six-day cell proliferation assay (CellTiter-Glo); assay type: cell-based; conditions: Homo sapiens, 144 h; JM1 (B-cell lymphoma), 6 days; read-out: Average day 6 gIC50
# Description: as §1, §2, §3, §4, §5, §6, §7, §8
# [2] = Plasma protein binding (equilibrium dialysis), mouse plasma; assay type: in vitro ADME, CD-1 mouse; conditions: male, CD-1, pH 7.4
# Description: Hepatocyte stability, plasma protein binding and cytochrome P450 assays were performed using standard procedures. Details can be found in Supplementary Methods. […]
# reaction. Plates were incubated at 37°C and 50 µL aliquots were removed from the incubation mixture at 0, 10, 20, 40, 60 and 90 min and added to 2 volumes of methanol containing metoprolol (internal standard) to stop the reaction. Negative control incubations with inactivated cell l ysat e were incubat ed for 90 min. Positive controls were verapamil and umbelliferone. The termination plates were centrifuged at 2,500 rpm for 20 min at 4°C to precipitate the protein prior to LC -MS/MS analysis. In vitro h alf -life (t½) value was det ermined b y plotting the natural logarithm of the anal yte/ IS peak area ratios as a function of time, with the slope of the linear regression (k; - gradient) converted to in vitro t ½ v alue wher e t ½=0.693/k. […]
# Plasma protein binding was assessed b y equilibrium dial ysis, utilizing the HT-dial ysis cell format with a cellulose semi- permeable membran e (molecular wei ght cut-off of 5000 Da).
# (pH 7.4) and 100% mixed gender pooled human, pooled male CD -1 mouse or Sprague-Dawle y rat plasma. […] Samples were quantified using standard curves prepared in the equivalent matrix. The fraction unbound in plas ma (fu) was calculated us ing the followin g equ ation: […]
smiles,measurement,setting,value
CNC[C@@H](O)COc1ccc(Cl)c(-c2nc(-c3c(C)noc3C)c(C)c(N3CC4(CCN(C(=O)OC)CC4)C3)n2)c1 [EZM2302],inhibition or stimulation in any of the assays except KOP receptor,[1],≤ 40%
same,pIC50,MC/CAR,6.62
same,pIC50,KASUMI-1,4.88
same,pIC50,KMS-12PE,< 4.75
same,pIC50,MV-4-11,< 5.10
same,pIC50,GDM-1,4.68
same,pIC50,MOLP-2,< 4.51
same,pIC50,LP-1,5.58
same,pIC50,MM.1R,6.67
same,pIC50,EJM,< 4.69
same,pIC50,NC-37,< 5.13
same,pIC50,JM1,< 5.13
same,"fraction unbound at 16 h, 5 µM",[2],0.46
